According to patent US9119396B2, “Method for promoting plant growth” (SUMITOMO CHEMICAL COMPANY, LIMITED, priority 2011, dated 2015):

Legend:
Format in all cases: in vivo
[1] = tested on: Benthamiana tobacco (Nicotiana benthamiana); assay: Test Example 9: reduction of low-temperature stress in hydroponics of tobacco; details: tobacco seedlings, medium with 0.1 ppm compound for 7 days; low-temperature stress 1.5±1.0° C. 7 days, then 3 days at 22° C.
Experimental: Evaluation Test for Reduction of Low-Temperature Stress in Hydroponics of Tobacco (Nicotiana benthamiana) Benthamiana tobacco (Nicotiana benthamiana) DMSO solutions containing each of the present compounds 1, 4 and 5 at a concentration of 100 ppm were prepared. […] These media were used in the treated-group. In a non-treated group, a medium obtained by adding a 1/1,000 volume of DMSO to a Murashige-and-Skoog medium at ½ concentration was used. The seeds of tobacco (Nicotiana benthamiana) were sown on 5 μL of the medium, and incubated at 22° C. overnight. Thereto was added 45 μL of a medium containing each present compound at a concentration of 0.1 ppm, and cultivated for 7 days under the conditions of an illuminance of 4,000 lux, a temperature of 22° C. and a day length of 16 hours, thereby treating the seedlings of tobacco (Nicotiana benthamiana) with the test compound. In the non-treated group, 45 μL of a medium obtained by adding a 1/1,000 volume of DMSO to a Murashige-and-Skoog medium at ½ concentration was added, and treated in the same manner as above. The seedlings of tobacco (Nicotiana benthamiana) treated with the present compounds were cultivated for 7 days under the conditions of an illuminance of 2,000 lux, a temperature of 1.5±1.0° C., and a day length of 16 hours, thereby subjecting to low-temperature stress treatment. The plants of tobacco (Nicotiana benthamiana) subjected to low-temperature stress treatment was cultivated for 3 days under the conditions of an illuminance of 4,000 lux, a temperature of 22° C., and a day length of 16 hours, and then the green leaf area of the plants was visually evaluated. Completely dead plant was scored as 0, the plant without low-temperature stress treatment was scored as 5, the green area was rated on a 6-point scale in ⅕ increments, and the score of not less than 1 was regarded as effective in reducing the stress. As a result of visual evaluation, the green leaf area of plants in the treated group, wherein the plants were treated with the present compound 1, 4 or 5 was much larger than that in the non-treated group.

[2] = tested on: Rice (cultivar: Nipponbare); assay: Test Example 4: reduction of low-temperature stress by immersion treatment of rice; details: rice seedlings, immersion at 1 ppm for 2 days; low-temperature stress 4° C. 5 days, then 4 days at 25° C.
Experimental: Evaluation Test for Reduction of Low-Temperature Stress by Immersion Treatment of Rice Rice (cultivar: Nipponbare) A necessary amount of rice seeds was immersed in an aqueous solution of 1,000 ppm of Benlate, and incubated at 30° C. overnight under dark conditions. The aqueous solution of Benlate was replaced with distilled water, and the seeds were further incubated at 30° C. overnight under dark conditions to stimulate the germination of the seeds. A filter paper was placed on the holes of a plug tray having 406 holes, and the rice seeds obtained after the stimulation of germination were sown on the filter paper. To the rice seeds was added a kimura B solution for hydroponics (see Plant Science 119: 39-47 (1996)) at ½ concentration, and cultivated for 5 days in an artificial weather control room under the following conditions: • temperature: 28° C. in daytime/23° C. in night, humidity: 70%, illuminance: 8,500 lux, and day length: 12 hours. <Compound Treatment> A DMSO solution of 1,000 ppm of the present compound 1 was prepared, and diluted with a kimura B solution for hydroponics at ½ concentration. The solution for hydroponics containing the compound was dispensed into the wells of a 24-well plate at 2 ml per well. […] In the treated group, the experiment was performed in duplication and the average value of the green area per individual was calculated. […]

[3] = tested on: Corn (cultivar: Kuromochi); assay: Test Example 2: promotion of growth by treatment of corn seeds; details: corn seed treatment, 50 g per 100 kg of seeds; cultivated 18 days at 27° C.
Experimental: Evaluation Test for Promotion of Growth by Treatment of Corn Seeds Corn (cultivar: Kuromochi) A blank slurry solution containing 10% (V/V) color coat red (Becker Underwood, Inc.), 10% (V/V) CF-Clear (Becker Underwood, Inc.) and 1.66% Maxim 4FS (Syngenta) was prepared. A slurry solution was prepared by dissolving the present compound 1 in the blank slurry solution such that 50 g of the compound is applied to each 100 kg of corn seeds. In a 50-ml centrifuge tube (manufactured by BD Japan), 0.35 ml of the slurry solution was placed for each 14.4 g of corn seeds and stirred until the solution was dried, thereby coating the seeds. In addition, seeds were coated with the blank slurry solution and used as seeds for a non-treated group. One of the treated seeds was sown in culture soil (AISAI) in each pot (55 mm in diameter×58 mm in height) and cultivated for 18 days under the conditions of a temperature of 27° C., an illuminance of 5,000 lux, and a day length of 16 hours. After the cultivation, the fresh weight of the overground part of the plants was measured. The experiment was performed in three replications for each treatment condition and the average weight per individual was calculated. […]

For COC(=O)c1cc2cc(C(F)(F)F)ccc2s1 [compound 1], the “green leaf area of plants (visual evaluation) vs non-treated group” value [1] was “much larger”, the “green area of the overground part of the plant vs non-treated group” value [2] was “much larger” and the “fresh weight of the overground part of plants vs non-treated group” value [3] was “much heavier”.
